Source: publication PMC10675077, “Antimicrobial Properties of New Polyamines Conjugated with Oxygen-Containing Aromatic Functional Groups” (Molecules, 2023)
In brackets after ≈: the same amount, converted by molar mass. Like-named read-outs stand apart in the source and are kept apart here.

Legend:
[1] = test system: Saccharomyces cerevisiae BY4741/YEplac195; test: microbe, parasite or virus in culture; assay type: cell-based; details: Saccharomyces cerevisiae, 24 h, read-out: MIC, Yeast, BY4741/ YEplac195
Text: (§1) The microorganisms used for the susceptibility tests were the bacteria Escherichia coli JM101 and Staphylococcus aureus BHI, and the yeast Saccharomyces cerevisiae strains BY4741 (MAT a his3Δ1 leu2Δ0 met15Δ0 ura3Δ0 (EUROSCARF)) carrying YEplac195 (from EUROSCARF) or YEPlac195-PDR5 (provided by Ayse Banu Demir, Izmir University of Economics, Turkey) plasmids.
(§2) Bacterial strains were usually maintained and grown in an LB medium (0.5% (w/v) yeast extract, 1% (w/v) bactotryptone, and 1% (w/v) NaCl) at 37 °C. For MIC (minimal inhibitory concentration) and MMC (minimal microbicidal concentration) assays, and for the determination of synergies, overnight growth was carried out in 2% (w/v) bactopeptone (BP), and then the cultures were diluted and incubated for several hours in 2% (w/v) BP for ensuring logarithmic growth. Yeast strains were grown in an SC-ura medium (0.17% (w/v) yeast nitrogen base without amino acids and ammonium sulphate, 0.2% (w/v) drop-out without uracil, 0.5% (w/v) (NH4)2SO4, and 2% (w/v) glucose) at 30 °C. Liquid cultures were incubated with shaking (200 rpm). Solid media also contained 2% (w/v) agar.
(§3) The determination of the MIC for yeast strains was carried out following a similar procedure to that of the polyamines and antifungal reference agents: Serial dilutions of each one in phosphate buffer (20 mM, pH 7.4, 0.5 mL) were prepared and mixed with a suspension of yeast cells (OD600 0.04 in SC-ura 2X (VWR, Atlanta, GA, USA), 0.5 mL). […] Experiments were carried out at least three times in all cases.

[2] = test system: Saccharomyces cerevisiae BY4741/YEplac195-PDR5; test: microbe, parasite or virus in culture; assay type: cell-based; details: Saccharomyces cerevisiae, 24 h, read-out: MIC, Yeast, BY4741/ PDR5
Text: as §1, §2, §3

Escherichia coli JM101 = test: MIC, microdilution in culture medium, E. coli; assay type: cell-based; details: Escherichia coli, read-out: MIC, Bacteria, E. coli JM101
Text: as §1, §2
(§4) For the analysis of the antimicrobial activity, the strategies and indications of Cushnie et al. were considered. The standardised method of microdilution in a culture medium was followed to determine the MIC [55]. In bacterial strains, serial dilutions of the compounds to be tested and the control antibiotics were prepared in phosphate buffer (20 mM, pH 7.4, 0.5 mL) and were mixed with a suspension of bacterial cells in a logarithmic growth phase (in 1% BP, 0.5 mL). The final OD600 of the whole solutions were 0.004 and 0.008 for E. coli and S. aureus cultures, respectively. After 20 h of incubation at 37 °C with shaking, the MIC was determined as the lowest concentration of each compound in which no visible bacterial growth was observed.

[3] = test system: Staphylococcus aureus BHI; test: MIC, microdilution in culture medium, S. aureus; assay type: cell-based; details: Staphylococcus aureus, 20 h, read-out: MIC, Bacteria, S. aureus BHI
Text: as §1, §2, §4

E. coli JM101 = test: Minimal bactericidal concentration, E. coli; assay type: cell-based, Escherichia coli; details: Escherichia coli, JM101; overnight incubation, plating on LB; bacteriostatic if growth at 4 times the MIC
Procedure: (§5) Once the MIC was known, the samples were prepared as described in the previous section with polyamine concentrations corresponding to the MIC and half, double, and four times its value. After overnight incubation with the microorganisms, 30 μL of a ten-fold dilution of each one was spread in LB (in the case of bacterial strains) or SC-ura (for yeast strains) plates. They were incubated for 20 h at 37 °C (bacteria) or 48 h at 30 °C (yeasts), and the level of growth was determined. […] Experiments were carried out at least three times.

[4] = Potentiometric titrations in water (protonation constants); assay type: physicochemical; details: for log β (cumulative protonation constant): calculated as log β = ∑j log KHjL; for n, average number of positive charges at pH 7.4: calculated from protonation constants
Procedure: The potentiometric titrations were carried out at 298.1 ± 0.1 K using NaCl 0.15 M as a supporting electrolyte. The experimental procedure (burette, potentiometer, cell, stirrer, microcomputer, etc.) has been fully described elsewhere. The acquisition of the EMF data was performed with the computer program PASAT [50]. The reference electrode was a Ag/AgCl electrode in a saturated KCl solution. The glass electrode was calibrated as a hydrogen-ion concentration probe via the titration of previously standardised amounts of HCl with CO2-free NaOH solutions and the equivalent point determined using the Gran method, which provides the standard potential, E^θ′, and the ionic product of water (pKw = 13.73(1)).
The computer program […] was used to calculate the protonation constants. The pH range investigated was 2.5–11.0, and the concentration of the ligands ranged from 5 × 10^−4 to 5 × 10^−[…]. The different titration curves for each system (at least two) were treated either as a single set or as separated curves without significant variations in the values of the stability constants. Finally, the sets of data were merged and treated simultaneously to give the final stability constants.

[5] = test system: Yeast (S. cerevisiae strains); test: MIC, yeast (strain not specified); assay type: cell-based, Saccharomyces cerevisiae; details: Saccharomyces cerevisiae; yeast strain not specified (Tables 5 and 10); read-out: MIC Yeast
Procedure: as §3

[6] = Cytotoxicity, flow cytometry viability assay with propidium iodide; assay type: cell-based, human; details: human, Jurkat cells (human lymphocytic leukaemia, ATCC TIB-152), 24 h treatment, average of three experiments, read-out: IC50, cytotoxicity on the human Jurkat cell line
Procedure: The cytotoxicity of the compounds was assessed via flow cytometry with a viability assay using propidium iodide (PI), a DNA-binding fluorescent probe not permeant to live cells, which is commonly used to detect dead cells in a population. The human lymphocytic leukaemia Jurkat cell line (ATCC TIB-152) was obtained from the American Type Cell Culture (Sigma-Aldrich) and grown in suspension in an RPMI 1640 medium (Thermo Fisher Scientific, Waltham, MA, USA) supplemented with L-glutamine, antibiotics, and 10% heat-inactivated foetal calf serum (FCS, Thermo Fisher Scientific, Waltham, MA, USA). For the viability assay, cells were seeded in plastic 96-well plates at […] in an RPMI 1640 medium supplemented with 5% FCS. The cells were treated for 24 h with a range of concentrations of the test compounds or with the same volume of phosphate buffer (PBS) in control wells. After incubation, cell suspensions were washed, resuspended in 400 μL fresh medium, and incubated for 5 min at room temperature in the dark with 3.75 μM PI (Sigma-Aldrich). Cell viability was determined via flow cytometry using a Gallios flow cytometer (Beckman Coulter). PI fluorescence was excited with an argon-ion laser at 488 nm and collected through a 620/630 nm band-pass emission. Cellular events were discriminated from debris using forward scatter (FS) and side scatter (SS) signals. Cell aggregates were excluded from analysis based on FS-integral and FS-peak. The gates applied for population discrimination were set manually based on control samples. For each sample, 10,000 events were collected. For further analysis, the cytometric data were exported to Kaluza 2.1 software (Beckman Coulter, Brea, CA, USA). Dead cells were identified and quantified as PI-positive events. The cytotoxic potency of test compounds was quantified using their IC50 values, i.e., the compound concentration at which cell viability is inhibited by 50%, as calculated via curve fitting and determined with the correlation coefficient (R2) using GraphPad Prism 9.0 software. Experiments were carried out in triplicate.

S. aureus BHI = test: Minimal bactericidal concentration, S. aureus; assay type: cell-based, Staphylococcus aureus; details: Staphylococcus aureus; overnight incubation, plating on LB
Procedure: as §5

[7] = JM101, 20 h, 37 °C, average of at least three experiments
[8] = 37 °C, average of at least three experiments
[9] = 30 °C, average of at least three experiments
[10] = 298 K, 0.15 mol/dm^3 NaCl, error in last figure in parentheses

SMILES	MIC [2]	MIC (Escherichia coli JM101; [7])	MIC [3, 8]	MIC [1, 9]	also measured
c1ccc2c(c1)OCO2 [1,3-Benzodioxole, reference compound]	> 500 µg/mL	–	–	–	MIC [1]: > 500 µg/mL; MIC (Escherichia coli JM101; JM101, 20 h): > 500 µg/mL; MIC [3]: > 500 µg/mL
O=C(O)c1cn(C2CC2)c2cc(N3CCNCC3)c(F)cc2c1=O [Ciprofloxacin, reference compound]	–	0.04 µg/mL	0.1 µg/mL	–	–
c1cc2c(cc1CNCCCCNCCCNCc1ccc3c(c1)OCO3)OCO2 [Compound 1a, N^1-(benzo[d][1,3]dioxol-5-ylmethyl)-N^4-(3-((benzo[d][1,3]dioxol-5-ylmethyl)amino)propyl)butane-1,4-diamine]	> 400 µg/mL	50 µg/mL	150 µg/mL	> 400 µg/mL	MBC (E. coli JM101): 100 µg/mL (≈ 242 µM); Stepwise protonation constant (log K), H2L + H ⇄ H3L [4, 10]: 7.699 (2); Stepwise protonation constant (log K), L + H ⇄ HL [4, 10]: 10.433 (2); Stepwise protonation constant (log K), LH + H ⇄ H2L [4, 10]: 8.964 (2); log β (cumulative protonation constant) ([4]; 298 K, 0.15 mol/dm^3 NaCl): 27.09; n, average number of positive charges at pH 7.4 [4]: 2.7; MIC [5]: > 400 µg/mL; IC50 at 24 h [6]: 11.4 µg/mL (≈ 27.6 µM)
NCCCCNCCCN [Compound 1b, spermidine, reference compound]	> 400 µg/mL	400 µg/mL	> 400 µg/mL	> 400 µg/mL	–
c1cc2c(cc1CNCCCNCCCCNCCCNCc1ccc3c(c1)OCO3)OCO2 [Compound 2a, N^1,N^1′-(butane-1,4-diyl)bis(N^3-(benzo[d][1,3]dioxol-5-ylmethyl)propane-1,3-diamine)]	250 µg/mL	10 µg/mL	50 µg/mL	250 µg/mL	MBC (S. aureus BHI): 100 µg/mL (≈ 212 µM); MBC (E. coli JM101): 20 µg/mL (≈ 42.5 µM); Stepwise protonation constant (log K), H2L + H ⇄ H3L [4, 10]: 8.245 (7); Stepwise protonation constant (log K), H3L + H ⇄ H4L [4, 10]: 7.41 (1); Stepwise protonation constant (log K), L + H ⇄ HL [4, 10]: 10.81 (3); Stepwise protonation constant (log K), LH + H ⇄ H2L [4, 10]: 9.481 (8); log β (cumulative protonation constant) ([4]; 298 K, 0.15 mol/dm^3 NaCl): 35.94; n, average number of positive charges at pH 7.4 [4]: 3.4; MIC [5]: 250 µg/mL (≈ 531 µM); IC50 at 24 h [6]: 8.8 µg/mL (≈ 18.7 µM)
NCCCNCCCCNCCCN [Compound 2b, spermine, reference compound]	> 400 µg/mL	100 µg/mL	400 µg/mL	–	MIC [1]: > 400 µg/mL
c1cc2c(cc1CNCCN(CCNCc1ccc3c(c1)OCO3)CCNCc1ccc3c(c1)OCO3)OCO2 [Compound 3a, N^1-(benzo[d][1,3]dioxol-5-ylmethyl)-N^2,N^2-bis(2-((benzo[d][1,3]dioxol-5-ylmethyl)amino)ethyl)ethane-1,2-diamine]	> 400 µg/mL	25 µg/mL	15 µg/mL	> 400 µg/mL	MBC (S. aureus BHI): 30 µg/mL (≈ 54.7 µM); MBC (E. coli JM101): 50 µg/mL (≈ 91.1 µM); Stepwise protonation constant (log K), H2L + H ⇄ H3L [4, 10]: 6.93 (3); Stepwise protonation constant (log K), L + H ⇄ HL [4, 10]: 9.12 (2); Stepwise protonation constant (log K), LH + H ⇄ H2L [4, 10]: 8.35 (3); n, average number of positive charges at pH 7.4 [4]: 2.1; MIC [5]: > 400 µg/mL; IC50 at 24 h [6]: 1.86 µg/mL (≈ 3.39 µM)
NCCN(CCN)CCN [Compound 3b, reference compound]	> 400 µg/mL	250 µg/mL	400 µg/mL	> 400 µg/mL	–
NCCCNCCN(CCNCCCN)CCNCCCN [Compound 4b]	> 400 µg/mL	400 µg/mL	250 µg/mL	> 400 µg/mL	–
C[C@@H]1C[C@@H]([C@H](O)CC2CC(=O)NC(=O)C2)C(=O)[C@@H](C)C1 [Cycloheximide, reference compound]	0.5 µg/mL	–	–	–	MIC [1]: 0.5 µg/mL
CNC(C)C1CCC(N)C(OC2C(N)CC(N)C(OC3OCC(C)(O)C(NC)C3O)C2O)O1 (stereo not shown) [Gentamicin, reference compound]	–	0.02 µg/mL	0.04 µg/mL	–	–
